The values that follow come from ChEMBL document CHEMBL1158198, “Indole Alkaloids of Haplophyton crooksii 1” (J Nat Prod, 1996).

Acetylcholinesterase, sequence (O42275 whole entry): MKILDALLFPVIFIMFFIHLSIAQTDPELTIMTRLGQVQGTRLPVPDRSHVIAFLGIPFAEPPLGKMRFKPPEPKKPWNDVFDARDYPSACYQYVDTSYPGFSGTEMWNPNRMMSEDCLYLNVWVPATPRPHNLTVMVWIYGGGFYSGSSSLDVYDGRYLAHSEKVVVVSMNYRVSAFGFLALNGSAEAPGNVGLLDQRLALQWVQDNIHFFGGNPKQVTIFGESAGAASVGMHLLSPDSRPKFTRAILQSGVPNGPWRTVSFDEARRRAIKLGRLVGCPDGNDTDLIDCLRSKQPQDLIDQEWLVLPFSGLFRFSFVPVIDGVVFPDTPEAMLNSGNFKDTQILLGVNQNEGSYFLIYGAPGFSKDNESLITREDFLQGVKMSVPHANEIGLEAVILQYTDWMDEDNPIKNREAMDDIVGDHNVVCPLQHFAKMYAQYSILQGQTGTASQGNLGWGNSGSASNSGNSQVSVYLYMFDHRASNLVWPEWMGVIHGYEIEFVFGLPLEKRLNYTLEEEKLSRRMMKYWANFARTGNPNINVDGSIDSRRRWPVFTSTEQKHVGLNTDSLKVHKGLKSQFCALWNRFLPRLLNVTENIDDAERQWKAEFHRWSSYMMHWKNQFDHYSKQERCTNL

This experiment has as its target Acetylcholinesterase (Electrophorus electricus, UniProt O42275). The experiment in a line: Inhibition of electric eel AChE.
In general, IC50 refers to the point on the concentration scale where inhibition reaches its midpoint. Compound `CCC(=O)N1c2c(O)cccc2[C@]23CCN4CCC[C@@]5(CC[C@@H]12)CC(=O)O[C@@]453` [CIMICINE] showed an IC50 of 241 µM.

`CCc1[nH]c2ccccc2c1CCN1CCCC(CC)C1` (configuration not stated) [DECARBOMETHOXYTETRAHYDROSECODINE]: the IC50 is 203 µM. With `C/C=C1/CN2CC[C@@]34c5ccccc5N(C)[C@H]5O[C@]3(O)[C@@H]2C[C@@H]1[C@]54C(=O)OC` [LANCEOMAGINE] the figure was 383 µM; with `C/C=C1/CN2CC[C@]34C(=C(C(=O)OC)[C@H]1C[C@H]23)Nc1ccccc14` [AKUAMMICINE], 221 µM; with `COC(=O)[C@@H]1[C@H]2C[C@H]3c4[nH]c5ccccc5c4CCN3C[C@@H]2CC[C@@H]1O` [YOHIMBINE], 431 µM. Regarding `C/C=C1\CN2[C@H]3C[C@H]1C(C(=O)OC)[C@@H]2Cc1c3n(C)c2ccc(OC)cc12` (some centres not stated), half-maximal inhibition (IC50) required 135 µM. In turn, `COc1c([C@@]23CCN(C)[C@]4(CCC(=O)N4c4c(O)cccc42)C3=O)cc2c(c1OC)N(C)[C@@H]1C=C[C@@]34CCCN5CC[C@@]21[C@]53OC(=O)C4` [HAPLOPHYTINE] returned an IC50 of 225 µM. For `C/C=C1/CN2[C@H]3Cc4c([nH]c5ccccc45)[C@@H]2C[C@@H]1[C@]3(CO)C(=O)OC` [AKUAMMIDINE], the IC50 was determined as 188 µM. The result for `CCC(=O)N1c2c(ccc(OC)c2O)[C@]23CCN4CCC[C@@]5(CC[C@@H]12)CC(=O)O[C@@]453` [CIMICIDINE] reads 197 µM.

`CC[C@@H]1CCCN(CCc2c(C(C)=O)[nH]c3ccccc23)C1` [CROOKSIDINE]: it took 175 µM to reach half-maximal inhibition (IC50). For `C/C=C1/CN2CC[C@]34c5cccc(OC)c5N[C@H]3C[C@H]1C[C@H]24`, the IC50 was determined as 57 µM. `CC[C@H]1[C@@H]2CCN3CC[C@@]4(C(=C2C(=O)OC)Nc2ccccc24)[C@@H]13` [TUBOTAIWINE] registered an IC50 of 108 µM.
